Experimental findings from patent US8772031B2, “Composition for reprogramming somatic cells to generate induced pluripotent stem cells, comprising Oct4 in combination with Bmi1 or its upstream regulator, and method for generating induced pluripotent stem cells using the same” (Korea University Research and Business Foundation, priority 2009, dated 2014) are described below.

Holding throughout (assay type): cell-based
In experiment [1] the test system is Bmi1 expression in mouse embryonic fibroblasts. Description: Bmi1 expression by treatment with Shh or Shh analog (RT-PCR of downstream genes) under neural stem cell-culturing conditions. Particulars: for expression of Gli1 and Bmi1 (RT-PCR) / expression of the Bmi1 target genes p16^Ink4a and p19^Arf (RT-PCR): DMEM/F12+B27+N2+bFGF+EGF; for Sox2 expression level: culture condition for neural stem cells. As to the method: Mouse embryonic fibroblasts were employed to generate embryonic stem cell-like cells. Embryos were taken from CF1 strain mice on embryonic day 13.5. Cells were cultured in DMEM (high glucose, w/o sodium pyruvate) supplemented with 10% FBS (Fetal bovine serum), 0.1 mM non-essential amino acid, 1% penicillin/streptomycin and 0.1 mM β-mercaptoethanol in tissue culture flasks, after which fibroblasts at the 3rd passage were seeded at a density of 2×10^5 cells/well into 6-well plates.
(§1) The fibroblasts prepared in Example 1 were examined for Bmi1 expression when they were treated with Shh or an analog thereof, such as oxysterol or purmorphamine. FIGS. 9A, 14A and 22A are RT-PCR results showing the effect of Shh (Sonic hedgehog), known as an upstream regulator of Bmi1, or its analogs on the expression of genes downstream thereof.

Experiment [2] deals with mouse embryonic fibroblasts. As to the kind of experiment: Reprogramming of treated fibroblasts into neural stem cell-like cells (morphology, AP staining, immunochemistry). The settings on record: neural stem cell-culturing conditions, immunochemistry for SSEA1, Nestin, Sox2. As to the method: as §1
The induced neural stem cell-like cells were positively analyzed by AP staining and immunochemistry for SSEA1, Nestin and Sox2 (FIGS. 9C, 14C and 22C).

Experiment [3] relates to mouse embryonic fibroblasts. Description: Generation of iPS cells by retroviral Oct4 introduction during treatment with Shh or its analog, then embryonic stem cell culture conditions. The settings on record: Oct4 retrovirus three times at 16 hr intervals, treatment for 72 hrs, reprogramming process for 10-14 days.
In experiment [4] the test system is adult mouse embryonic fibroblasts. Description: Establishment of iPS cells (OO-iPS-TTF #1, 2) by Oct4 introduction during treatment with oxysterol. Particulars: oxysterol 0.1 μM and 0.5 μM with Oct4 introduction. From the text: The reprogramming method established with mouse embryonic fibroblasts was applied to adult mouse embryonic fibroblasts. […] 00-iPS-TTF #1 and 2 were positively stained with AP and found to express SSEA1, Oct4, Sox2, and Nanog as measured by immunochemical staining assays (FIG. 19A).

The mark [5] stands for this setting: 0.1 μM and 0.5 μM of hydroxycholesterol.
[6] abbreviates: 0.5 μM or 1 μM of purmorphamine.

Regarding `C[C@H](CCCC(C)(C)O)[C@H]1CC[C@H]2[C@@H]3CC=C4C[C@@H](O)CC[C@]4(C)[C@H]3CC[C@]12C` [hydroxycholesterol, 25-hydroxycholesterol], in experiment [1] (setting [5]), the “expression of Gli1 and Bmi1 (RT-PCR)” value is given as “upregulation”; the “expression of the Bmi1 target genes p16^Ink4a and p19^Arf (RT-PCR)” value is given as “downregulation”. The Sox2 expression level entry in experiment [1] is recorded as “increase”. Besides, in experiment [2], the “morphology and neural stem cell markers of the treated cells” value is “morphology similar to that of neural stem cells and express nestin and sox2”. The “appearance of ES cell-like colonies” value in experiment [3] is given as “colonies appeared with the same morphology as ES cells”. The “derivation of embryonic stem cell-like cells from adult fibroblasts” value in experiment [4] is listed as “allowed the derivation of embryonic stem cell-like cells”.

Regarding `c1ccc2c(Oc3nc(Nc4ccc(N5CCOCC5)cc4)c4ncn(C5CCCCC5)c4n3)cccc2c1` [purmorphamine, 2-(1-Naphthoxy)-6-(4-morpholinoanilino)-9-cyclohexylpurine], in experiment [1] (setting [6]), the “expression of Gli1 and Bmi1 (RT-PCR)” value is recorded as “upregulation”; the “expression of the Bmi1 target genes p16^Ink4a and p19^Arf (RT-PCR)” value was “downregulation”. The Sox2 expression level entry in experiment [1] is recorded as “increase”. Further, the “morphology and neural stem cell markers of the treated cells” value in experiment [2] is “morphology similar to that of neural stem cells and express nestin and sox2”. For the same molecule, in experiment [3], the “appearance of ES cell-like colonies” value is listed as “colonies appeared with the same morphology as ES cells”.
